Measurements reported in US20020173475A1 (priority 2001, published 2002).

Legend:
PV 5′ UTR RNA = assay type: binding, poliovirus
[1] = test system: IRES initiated translation; conditions: cited from earlier work

Row | Sequence | binding to PV 5′ UTR RNA relative to wild-type La antigen (PV 5′ UTR RNA) | inhibition of IRES initiated translation [1]
1 | AALEAKICHQIEQQFGDF [Peptide 772] | dramatically reduced binding | 
2 | AALEAKICHQIEYYFGDF [LAP] |  | inhibit this translation
3 | AALEAKICHQIEYYQGDQ [Peptide 771] | dramatically reduced binding | 
